In patent US8247603B2, “Deuterated catecholamine derivatives and medicaments comprising said compounds” (Birds Pharma GmbH Berolina Innovative, priority 2006, dated 2012):

Key:
[1] = system: dopamine output in the striatum; experiment: Striatal dopamine output measured by microdialysis; assay type: in vivo, Male Wistar rats; conditions: for Increase of dopamine in the striatum compared to L-DOPA (comparison of AUC0-t): 50 mg/kg i.p., relative to L-DOPA; for Increase of dopamine in the striatum compared to L-DOPA (comparison of AUC0-t) / Baseline corrected dopamine output in the striatum, AUC0-t: Male Wistar rats; for Baseline corrected dopamine output in the striatum, AUC0-t: 50 mg/kg intraperitoneal, 10 mg/kg Carbidopa i.p. 30 min before, microdialysis in dorsolateral striatum
Description: The striatal output of dopamine was measured in Male Wistar rats following intraperitoneal administration of 50 mg/kg L-2-Amino-3-(3,4-dihydroxyphenyl) propionic acid (L-DOPA), L-2-Amino-2,3,3-trideutero-3-(3,4-dihydroxyphenyl) propionic acid (WO-A 2004/056724, Example 6) and L-2-Amino-2,3-dideutero-3-(3,4-dihydroxyphenyl) propionic acid (Example 6), respectively. Male wistar rats (BK Universal, Sollentuna, Sweden) weighing about 300 g at the time of experiment were anaesthetized with a cocktail containing fentanyl citrate (0.39 mg/kg) and fluanisone (12.5 mg/kg, Hypnorm®, Janssen-Cilag) and midazolam (6.25 mg/kg, Dormicum®, Roche) diluted in distilled water (1:1:2; 5 ml/kg i.p.) and mounted in a stereotaxic frame. Dialysis probes were implanted in the dorsolateral striatum (AP: +0.6: ML+3.0: DV −6.2 relative to bregma and the dural surface according to the atlas of Paxinos and Watson (1998)). Dialysis occurs through a semipermeable membrane (Filtral AN69, Hospal Industrie, France) with an active surface length of 3.5 mm. Dialysis experiments were conducted approximately 48 h after surgery in freely moving rats. The rats received 30 min before administration of test items 10 mg/kg Carbidopa, (i.p.). The dialysis probe was perfused with a physiological perfusion solution (Apoteksbolaget, Sweden) at a rate of […] set by a microinfusion pump (Harvard Apparatus, Holliston, Mass.). Dialysate was collected over 15 min intervals and automatically injected into a high performance liquid chromatography (HPLC) system. On-line quantification of dopamine in the dialysate was accomplished by electro-chemical detection (ESA, Chelmsford, Mass.). The location of microdialysis probes was verified in slices of formalin-fixed tissue stained with neutral red. The baseline corrected concentrations (fmol/min) were plotted over the time.

[2] = system: striatal output of norepinephrine; experiment: Striatal output of norepinephrine; assay type: in vivo; conditions: compared to L-DOPA
[3] = system: Parkinson's disease exhibiting severe on-off phenomena; conditions: continuous intravenous infusion, patients with Parkinson's disease with severe on-off phenomena; cited from earlier work
[4] = given orally or intraperitoneally, on a molar basis; cited from earlier work
[5] = cited from earlier work
dopamine in the striatum = conditions: male Wistar rats; known from WO-A 2004/056724; cited from earlier work
[6] = Therapeutic equivalence during continuous intravenous infusion; assay type: in vivo
Excerpt: The optimal infusion rate for L-DOPA methyl ester was 2.7 times that required for L-DOPA (Stocchi et al. 1992, Movement Disorders, 7: 249-256).

Row | SMILES | Increase of dopamine in the striatum compared to L-DOPA (comparison of AUC0-t) [1] | Baseline corrected dopamine output in the striatum, AUC0-t [1] [fmol/min*min] | Striatal output / formation of norepinephrine [2] | also measured
1 | [2H][C@@H](c1ccc(O)c(O)c1)[C@]([2H])(N)C(=O)O [Example 6, L-2-Amino-2,3(S)-dideutero-3-(3,4-dihydroxyphenyl) propionic acid] | threefold higher | 685 | does not block the formation of norepinephrine | Increase of dopamine in the striatum compared to L-2-Amino-2,3,3-trideutero-3-(3,4-dihydroxyphenyl) propionic acid ([1]; Example 15 and Table 1): significantly more
2 | COC(=O)[C@@H](N)Cc1ccc(O)c(O)c1 [L-DOPA methyl ester] |  |  |  | Optimal infusion rate relative to that required for L-DOPA [3]: 2.7 times; Equivalence to L-DOPA in animal experiments [4]: equivalent on a molar basis to L-DOPA; Solubility [5]: highly soluble
3 | [2H]C([2H])(c1ccc(O)c(O)c1)[C@]([2H])(N)C(=O)O [L-2-Amino-2,3,3-trideutero-3-(3,4-dihydroxyphenyl) propionic acid] | about twice as high | 533 | reduces the striatal output of norepinephrine | Increase of dopamine in the striatum compared to non-deuterated L-DOPA (dopamine in the striatum): significantly more
4 | [2H][C@@H](c1ccc(O)c(O)c1)[C@]([2H])(N)C(=O)OC [Example 7, L-2-Amino-2,3(S)-dideutero-3-(3,4-dihydroxyphenyl)methyl propionate] |  |  |  | Therapeutic equivalence to L-2-Amino-2,3-dideutero-3-(3,4-dihydroxyphenyl) propionic acid [6]: therapeutically equivalent
5 | N[C@@H](Cc1ccc(O)c(O)c1)C(=O)O [L-2-Amino-3-(3,4-dihydroxyphenyl) propionic acid] |  | 228 |  | 
